From patent publication US8158593B2, “GPR17 modulators, method of screening and uses thereof” (Universita' degli Studi di Milano, priority 2004, dated 2012)

What was measured:
hGPR17 [1] = molecular target: T1, hGPR17 (Homo sapiens, UniProt Q13304); experiment: [35S]GTPγS binding, HEK-293 cells expressing hGPR17; format: biochemical; set-up: expressed in transfected cells; host or cells: HEK-293 (A4); pcDNA3.1; settings: HEK-293 cells transfected with hGPR17
Experimental: (§1) [^35S]GTPγS Binding Assay. 1321N1 cells, COS-7 and HEK-293 cells (control and transfected cells) were homogenized in 5 mM TRIS-HCl, 2 mM EDTA, pH 7.4 and centrifuged at 48000 g for 15 min at 4° C. The resulting pellets (plasma membranes) were washed in 50 mM TRIS-HCl, 10 mM MgCl2, pH 7.4 and stored at −80° C. until used. Measurement of nucleotide-stimulated [^35S]GTPγS binding to membranes of cells expressing the human or rat GPR17 receptor was performed as previously described^9-11.
To identify the endogenous ligand of GPR17, the cDNAs from human and rat GPR17 were cloned into the mammalian expression vector pcDNA3.1 and transfected in 1321N1, COS-7 and HEK-293 cells for functional characterization. GPR17 activation was assessed by testing the ability of exogenously-added ligands to increase [^35S]GTPγS binding to purified membranes obtained from transfected cells^9-11. […] The specificity of GPR17 responses were also challenged by assessing the ability of some purinergic and leukotriene receptor antagonists to counteract the increase of [^35S]GTPγS binding evoked by nucleotides and cys-LTs in 1321N1 cells expressing either the human or rat receptor. […]

rat GPR17 = molecular target: T2, rat GPR17 (Rattus norvegicus, UniProt Q09QM4); experiment: [35S]GTPγS binding to membranes of 1321N1 cells expressing rat GPR17; format: biochemical; settings: agonist; 1321N1 cells expressing rat GPR17
T2 construct: expressed in transfected cells; host or cells: 1321N1; pcDNA3.1
Experimental: as §1
To identify the endogenous ligand of GPR17, the cDNAs from human and rat GPR17 were cloned into the mammalian expression vector pcDNA3.1 and transfected in 1321N1, COS-7 and HEK-293 cells for functional characterization. GPR17 activation was assessed by testing the ability of exogenously-added ligands to increase [^35S]GTPγS binding to purified membranes obtained from transfected cells^9-11. […] The specificity of GPR17 responses were also challenged by assessing the ability of some purinergic and leukotriene receptor antagonists to counteract the increase of [^35S]GTPγS binding evoked by nucleotides and cys-LTs in 1321N1 cells expressing either the human or rat receptor. […] Because both P2Y^2,11,12 and CysLT receptors^3,13 may couple to G proteins of the Gi subfamily, to evaluate the involvement of this class of G-proteins, we preincubated 1321N1 cells expressing hGPR17 with pertussis toxin (PTX) which inactivates Gi proteins, prior to membrane preparation and [^35S]GTPγS binding.
Table 1. Potency of various ligands on [^35S]GTPγS binding to membranes obtaind from 1321N1 cells-transfected with human or rat GPR17. […] All data represent the mean of triplicate determinations from 4-9 independent experiments.

hGPR17 [2] = molecular target: T1, hGPR17; experiment: Single cell calcium imaging in 1321N1 cells expressing hGPR17; format: cell-based; set-up: expressed in transfected cells; host or cells: 1321N1 (A1, A5), COS-7 (A3, A6), HEK-293 (A4); pcDNA3.1
Text: Polychrome IV (TILL Photonics, Germany) was used as light source. Fura-2 and EGFP fluorescence images were collected with a PCO Super […] (Axon Instruments, Forest City, Calif.) and analyzed with the Axon Imaging Workbench 2.2 software (Axon Instruments).

T1 sequence (Q13304 29-367): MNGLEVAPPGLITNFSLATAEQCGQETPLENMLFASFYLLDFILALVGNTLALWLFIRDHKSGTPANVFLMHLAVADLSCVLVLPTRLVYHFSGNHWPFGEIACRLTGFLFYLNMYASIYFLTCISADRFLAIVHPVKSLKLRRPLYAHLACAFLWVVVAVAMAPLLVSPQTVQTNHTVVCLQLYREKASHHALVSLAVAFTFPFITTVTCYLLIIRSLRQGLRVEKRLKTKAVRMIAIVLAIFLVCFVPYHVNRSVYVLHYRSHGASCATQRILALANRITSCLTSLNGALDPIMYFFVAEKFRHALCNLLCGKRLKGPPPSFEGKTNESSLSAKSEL
T2 sequence (Q09QM4 whole entry): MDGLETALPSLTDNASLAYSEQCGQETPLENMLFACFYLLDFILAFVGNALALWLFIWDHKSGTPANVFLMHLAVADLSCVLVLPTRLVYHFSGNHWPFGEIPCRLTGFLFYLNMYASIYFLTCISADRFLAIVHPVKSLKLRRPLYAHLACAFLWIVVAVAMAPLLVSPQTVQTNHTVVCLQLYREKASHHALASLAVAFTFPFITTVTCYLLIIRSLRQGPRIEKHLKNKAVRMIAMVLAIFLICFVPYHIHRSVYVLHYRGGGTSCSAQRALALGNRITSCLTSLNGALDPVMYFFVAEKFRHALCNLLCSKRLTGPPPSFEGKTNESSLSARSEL

O=c1ccn([C@@H]2O[C@H](COP(=O)(O)OP(=O)(O)O)[C@@H](O)[C@H]2O)c(=O)[nH]1 [UDP]
response in [35S]GTPγS binding (hGPR17 [1]): induced responses | EC50 (rat GPR17): 4.6 ± 0.6 µM | cells showing rise of [Ca2+]i (hGPR17 [2]): approximately 30%
